Reference: patent US8349885B2, “Indole and indazole derivatives having a cell-, tissue- and organ-preserving effect” (LG Life Sciences Ltd., priority 2008, dated 2013)
pIC50: −log10 of the molar value.

Key:
[1] = tested on: primary cultured hepatocytes; assay: Cell-protecting effect against cold shock in primary cultured hepatocytes (WST-1); format: cell-based; conditions: Rattus norvegicus, Hepatocyte, 37° C. for 1 hour, 4° C. for 22 hours, then 37° C., cell viability by WST-1
Protocol: In order to reproduce a condition for preservation prior to organ transplantation, primary cultured hepatocytes were prepared according to Experimental Example 1 and treated with the compounds of the working examples at 9 different concentrations that had been prepared by 3-fold serial dilution method using a starting concentration of 25 μM. The mixture was cultured at 37° C. for 1 hour, stored at 4° C. for 22 hours, and then transferred into an incubator at 37° C. and cultured therein. Cell viability was measured by the optical density at 440 nm according to the WST-1 method (MK-400, Takeda), and IC50 (unit: μM) was obtained using prism software (see Table 1).

[2] = tested on: human embryonic lung cell line (LB-HEL); assay: Cell-protecting effect against cold shock in LB-HEL cells (WST-1); format: cell-based; conditions: cold shock at 4° C. for 24 hours, then 37° C., cell viability by WST-1
Protocol: The same results as above were also obtained in other types of cells such as human embryonic lung cell line (LB-HEL) as well as hepatocytes (see FIG. 2 and Table 2). More specifically, LB-HEL cells were plated at 1.5×10^6 cells/well using DMEM medium (Gibco BRL) and treated with DMSO, nec-1, IM-54 or the compounds of Examples 126, 127, 137 and 138 at indicated concentrations. After storage at 4° C. for 24 hours, the mixture was transferred into an incubator at 37° C. and cultured therein. In order to verify recovery capacity at 37° C., cell viability after 24 hours post-transfer was measured by the optical density at 440 nm according to the WST-1 method (MK-400, Takeda) and compared with cell viability prior to cold shock (FIG. 2).

[3] = tested on: rat-isolated perfusion liver; assay: Protecting effect against cold ischemia/warm reperfusion injury in rat-isolated perfusion liver model; conditions: 30 μM in HTK solution, 24-hour cold preservation at 4° C.
Protocol: In order to verify an organ preservation effect, rat-isolated perfusion liver model was used to evaluate a protecting effect of the compounds of the working examples against cold preservation injury. A white rat was anesthetized by intraperitoneal injection of sodium pentobarbital (50 mg/kg) and administered with heparin (500 U/kg) by intravenous injection to prevent blood coagulation. After incising the abdominal median line, in order to measure bile output, polyethylene tube-10 was inserted into the bile duct, and the coronary vein was tied. Polyethylene tube-190 was inserted into the hepatic portal vein, and a perfusate, Krebs-Henseleit bicarbonate buffer (KHBB) (at pH 7.4 at 37° C.) was perfused at a rate of 4 mL/min/g. […] During the perfusion, a mixed gas (O2 95% and CO2 5%) was continuously injected to KHBB to supply oxygen. […]
In order to observe a protecting effect against ischemia and reperfusion injury, bile output and perfusate's LDH activity were measured. KHBB perfusate released from liver at 5, 10, 20, 30, 40, 50, 60, 70 and 80 minutes after reperfusion was collected, and LDH activity in the perfusate was measured using a biochemical automatic analyzer, Hitachi 7150 (FIG. 4). Bile secreted through the polyethylene tube which had been inserted into the bile duct at 0˜20, 20˜40, 40˜60 and 60˜80 minutes after reperfusion was collected, and bile output was measured (FIG. 5).

## O=S1(=O)CCN(Cc2cc(NC3CCOCC3)c3[nH]c(-c4ccccc4)cc3c2)CC1 [Example 126, [5-(1,1-dioxo-thiomorpolin-4-ylmethyl)-2-phenyl-1H-indol-7-yl]-(tetrahydropyran-4-yl)-amine]
[1]
  pIC50: 6.61
[2]
  pIC50: > 7.00
[3]; 80 minutes of reperfusion
  total amount of bile output: 0.070±0.006 ml/g liver
[3]; Rattus norvegicus, until 50 minutes of reperfusion, read-out: inhibition of LDH activity in the perfusate, compared with the HTK group
  inhibition at 30 µM: 50 to 70%
